What was measured:
Carbonic anhydrase 6 = Carbonic anhydrase 6 (Homo sapiens, UniProt P23280)
Carbonic anhydrase 9 = Carbonic anhydrase 9 (Homo sapiens, UniProt Q16790)

Carbonic anhydrase 6, sequence (P23280 whole entry): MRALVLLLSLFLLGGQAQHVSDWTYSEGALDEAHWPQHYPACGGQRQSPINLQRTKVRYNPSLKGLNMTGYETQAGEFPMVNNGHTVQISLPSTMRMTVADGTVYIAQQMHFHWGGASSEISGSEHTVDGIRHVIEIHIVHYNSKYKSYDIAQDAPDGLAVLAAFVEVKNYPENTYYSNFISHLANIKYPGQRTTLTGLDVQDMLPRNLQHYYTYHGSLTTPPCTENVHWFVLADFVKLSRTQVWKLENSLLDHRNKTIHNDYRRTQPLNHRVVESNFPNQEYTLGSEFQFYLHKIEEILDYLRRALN

Row | Structure (SMILES) | Ki (Carbonic anhydrase 6) | Ki (Carbonic anhydrase 9)
1 | NNc1ccccc1S(N)(=O)=O | 1.09 µM | –
2 | Nc1ccc(S(=O)(=O)NCc2ccc(S(N)(=O)=O)cc2)cc1 | 0.055 µM | –
3 | Nc1ccc(S(N)(=O)=O)cc1I | 1.02 µM | –
4 | Nc1ccc(S(=O)(=O)Nc2nnc(S(N)(=O)=O)s2)cc1 | 0.073 µM | –
5 | Nc1nccc(Nc2ccc(S(N)(=O)=O)cc2)n1 | 0.086 µM | –
6 | Nc1ccccc1S(N)(=O)=O | 0.772 µM | –
7 | Nc1ccc(S(N)(=O)=O)cc1Br | 4.68 µM | –
8 | Cn1nc(S(N)(=O)=O)sc1=N | 0.74 µM | –
9 | NS(=O)(=O)c1ccc(CCO)cc1 | 4.15 µM | –
10 | Nc1ccc(S(N)(=O)=O)cc1F | 0.096 µM | –
11 | NS(=O)(=O)c1ccc(CO)cc1 | 6.68 µM | –
12 | Nc1ccc(S(N)(=O)=O)cc1Cl | 1.1 µM | –
13 | Nc1ccc(S(=O)(=O)NCCc2ccc(S(N)(=O)=O)cc2)cc1 | 0.024 µM | –
14 | NNc1ccc(S(N)(=O)=O)cc1 | 1.27 µM | –
15 | NS(=O)(=O)c1ccc(S(=O)(=O)Nc2cccc3c(Cl)c[nH]c23)cc1 | 0.047 µM | –
16 | CCN[C@H]1CN(CCCOC)S(=O)(=O)c2sc(S(N)(=O)=O)cc21 [BRINZOLAMIDE] | 0.0009 µM | –
17 | NS(=O)(=O)c1ccc(C(=O)O)cc1 [CARZENIDE] | 0.887 µM | –
18 | NCc1ccc(S(N)(=O)=O)cc1 [MAFENIDE] | 4.8 µM | –
19 | Cc1ccc(S(N)(=O)=O)cc1 [P-TOLUENESULFONAMIDE] | 1.58 µM | 0.46 µM
20 | Nc1ccc(S(N)(=O)=O)cc1 [SULFANILAMIDE] | 0.941 µM | –

From ChEMBL document CHEMBL1139847, “Carbonic anhydrase inhibitors. DNA cloning, characterization, and inhibition studies of the human secretory isoform VI, a new target for sulfonamide and sulfamate inhibitors” (J Med Chem, 2007)
